Measured values published in US10738028B2, “Spiro three-membered ring, spiro five-membered ring peptide deformylase inhibitor and use thereof in antibacteria and anti-tumor” (priority 2016, dated 2020).

Key:
Format in all cases: cell-based
[1] = system: Enterococcus faecalis (EFA); assay: MIC, two-fold agar dilution (CLSI), clinical isolates
In short: (§1)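 Following the American Clinical and Laboratory Standards Institute procedure, agar two-fold dilution served to determine minimum inhibitory concentrations.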

[2] = system: Enterococcus faecium (EFM); assay: as above
In short: as §1

[3] = system: Escherichia coli (including ESBLs, non-ESBLs); assay: as above
In short: as §1

[4] = system: Moraxella catarrhalis (BCA); assay: as above
In short: as §1

[5] = system: Streptococcus pneoumoniae (SPN); assay: as above
In short: as §1

[6] = system: methicillin-resistant Staphylococcus aureus (MRSA); assay: as above
In short: as §1

[7] = system: methicillin-resistant Staphylococcus epidermidis (MRSE); assay: as above
In short: as §1

[8] = system: methicillin-sensitive Staphylococcus aureus (MSSA); assay: as above
In short: as §1

[9] = system: methicillin-sensitive Staphylococcus epidermidis (MSSE); assay: as above
In short: as §1

[10] = system: HCT-116 colorectal cancer cell line; assay: CCK-8 proliferation inhibition; details: concentration of 30 μM; 72 hours; CCK-8; 30 µM
In short: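 2000 cells/well, McCoy's 5A + 10% newborn bovine serum; overnight attach, 37° C./5% CO2. Cpd from DMSO stock diluted in medium, 72 h. Readout: CCK-8 (1:10). Ctrl 1‰ DMSO.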

[11] = system: A549 lung cancer cell line; assay: CCK-8 proliferation inhibition; details: Homo sapiens, A549, 72 h, concentration of 30 μM
Text: (§2) 2. The present invention adopts the CCK-8 method to determine the proliferation inhibition effect of the spiro three-membered ring, spiro five-membered ring peptide deformylase inhibitor as described in Examples 1-80 against colorectal cancer cells, lung cancer cells, gastric cancer cells, liver cancer cells, and the like. […] The compound having the best activity synthesized in Example 64 was further tested for its inhibitory activity against other tumor cells including T cell leukemia, acute myeloid leukemia, cervical cancer, breast cancer, prostate cancer and osteosarcoma, and the like (see Table 7).
(§3) (1) HCT-116 colorectal cancer cell line, A549 lung cancer cell line, MGC-803 gastric cancer cell line, BEL-7402 liver cancer cell line, Jurkat T cell leukemia cell line, HL60 acute myeloid leukemia cell line, Hela cervical cancer cell line, MCF-7 breast cancer cell line, PC3 prostate cancer cell line and SAOS-2 osteosarcoma cell line were made into single cell suspension, 180 μL of which was inoculated into 96-well culture plate, which was cultured overnight in CO2 incubator (37° C., 5% CO2, 95% air).
(§4) (2) Each of the spiro three-membered ring, spiro five membered ring peptide deformylase inhibitors was dissolved in DMSO, and was further formulated into drug solution with required different final concentration using corresponding cell culture medium. The drug solutions were added to the above cells respectively (20 μL/well), with the control group added with 1‰ DMSO, and cultured in a CO2 incubator for 72 hours.
(§5) (3) After incubation for 72 hours, the culture solution was decanted, and 100 μL of 1:10 diluted CCK-8 solution was added.
(§6) Wherein, in step (1), the concentration of the single cell suspension was 2000 cells/well.
(§7) Wherein, in step (2), HCT-116 cells were cultured in McCoy's 5A medium (containing 10% newborn bovine serum, 1% double antibody); A549 and PC3 cells were cultured in F12 medium (containing 10% newborn bovine serum, 1% double antibody); MGC-803, BEL-7402, SAOS-2, Jurkat and HL60 cells were cultured in 1640 medium (containing 10% newborn bovine serum, 1% double antibody); and MCF-7 and Hela cells were cultured in DMEM high glucose medium (containing 10% newborn bovine serum, 1% double antibody).

[12] = system: BEL-7402 liver cancer cell line; assay: CCK-8 proliferation inhibition; details: concentration of 30 μM, 72 hours, 30 µM
Text: as §2, §3, §4, §5, §6, §7

[13] = system: MGC-803 gastric cancer cell line; assay: CCK-8 proliferation inhibition; details: concentration of 30 μM
Text: as §2, §3, §4, §5, §6, §7

SMILES: O=CN(O)C[C@@H](CC1CCCC1)C(=O)N1CC2(CC2)C[C@H]1C(=O)Nc1nccs1 (stereo in doubt) [Example 40, (S)-5-((S)-3-cyclopentyl-2-((N-hydroxyformamido)methyl)propionyl)-N-(thiazol-2-yl)-5-spiro[2.4]heptane-6-carboxamide]
- Anti-bacterial activity (MIC), strain EFA 15-1 ([1]; clinical isolate EFA 15-1): 4 µg/mL
- Anti-bacterial activity (MIC), strain EFA 15-2 ([1]; clinical isolate EFA 15-2): 4 µg/mL
- Anti-bacterial activity (MIC), strain EFA 15-3 ([1]; clinical isolate EFA 15-3): 4 µg/mL
- Anti-bacterial activity (MIC), strain EFA 15-4 ([1]; clinical isolate EFA 15-4): 4 µg/mL
- Anti-bacterial activity (MIC), strain EFA 15-5 ([1]; clinical isolate EFA 15-5): 4 µg/mL
- Anti-bacterial activity (MIC), strain EFA 15-6 ([1]; clinical isolate EFA 15-6): 4 µg/mL
- Anti-bacterial activity (MIC), strain EFA 15-9 ([1]; clinical isolate EFA 15-9): 4 µg/mL
- Anti-bacterial activity (MIC), strain EFM 15-1 ([2]; clinical isolate EFM 15-1): 1 µg/mL
- Anti-bacterial activity (MIC), strain EFM 15-2 ([2]; clinical isolate EFM 15-2): 1 µg/mL
- Anti-bacterial activity (MIC), strain EFM 15-3 ([2]; clinical isolate EFM 15-3): 0.25 µg/mL
- Anti-bacterial activity (MIC), strain EFM 15-4 ([2]; clinical isolate EFM 15-4): 1 µg/mL
- Anti-bacterial activity (MIC), strain EFM 15-5 ([2]; clinical isolate EFM 15-5): 1 µg/mL
- Anti-bacterial activity (MIC), strain EFM 15-6 ([2]; clinical isolate EFM 15-6): 1 µg/mL
- Anti-bacterial activity (MIC), strain ECO+ 15-1 ([3]; clinical isolate ECO+ 15-1): 32 µg/mL
- Anti-bacterial activity (MIC), strain ECO+ 15-2 ([3]; clinical isolate ECO+ 15-2): 32 µg/mL
- Anti-bacterial activity (MIC), strain ECO+ 15-3 ([3]; clinical isolate ECO+ 15-3): 32 µg/mL
- Anti-bacterial activity (MIC), strain ECO+ 15-4 ([3]; clinical isolate ECO+ 15-4): 32 µg/mL
- Anti-bacterial activity (MIC), strain ECO− 15-1 ([3]; clinical isolate ECO− 15-1): 32 µg/mL
- Anti-bacterial activity (MIC), strain ECO− 15-2 ([3]; clinical isolate ECO− 15-2): 32 µg/mL
- Anti-bacterial activity (MIC), strain ECO− 15-3 ([3]; clinical isolate ECO− 15-3): 32 µg/mL
- Anti-bacterial activity (MIC), strain ECO− 15-4 ([3]; clinical isolate ECO− 15-4): 32 µg/mL
- Anti-bacterial activity (MIC), strain BCA 14-1 ([4]; clinical isolate BCA 14-1): 1 µg/mL
- Anti-bacterial activity (MIC), strain BCA 14-4 ([4]; clinical isolate BCA 14-4): 1 µg/mL
- Anti-bacterial activity (MIC), strain BCA 14-5 ([4]; clinical isolate BCA 14-5): 0.5 µg/mL
- Anti-bacterial activity (MIC), strain BCA 14-6 ([4]; clinical isolate BCA 14-6): 0.5 µg/mL
- Anti-bacterial activity (MIC), strain BCA 14-7 ([4]; clinical isolate BCA 14-7): 0.25 µg/mL
- Anti-bacterial activity (MIC), strain BCA 14-8 ([4]; clinical isolate BCA 14-8): 0.5 µg/mL
- Anti-bacterial activity (MIC), strain BCA 14-10 ([4]; clinical isolate BCA 14-10): 0.2 µg/mL
- Anti-bacterial activity (MIC), strain SPN 16-2 ([5]; clinical isolate SPN 16-2): 0.25 µg/mL
- Anti-bacterial activity (MIC), strain SPN 16-4 ([5]; clinical isolate SPN 16-4): 4 µg/mL
- Anti-bacterial activity (MIC), strain MRSA 15-1 ([6]; clinical isolate MRSA 15-1): 0.5 µg/mL
- Anti-bacterial activity (MIC), strain MRSA 15-2 ([6]; clinical isolate MRSA 15-2): 0.5 µg/mL
- Anti-bacterial activity (MIC), strain MRSA 15-3 ([6]; clinical isolate MRSA 15-3): 0.25 µg/mL
- Anti-bacterial activity (MIC), strain MRSA 15-4 ([6]; clinical isolate MRSA 15-4): 0.25 µg/mL
- Anti-bacterial activity (MIC), strain MRSE 15-1 ([7]; clinical isolate MRSE 15-1): 0.5 µg/mL
- Anti-bacterial activity (MIC), strain MRSE 15-2 ([7]; clinical isolate MRSE 15-2): 0.5 µg/mL
- Anti-bacterial activity (MIC), strain MRSE 15-3 ([7]; clinical isolate MRSE 15-3): 0.5 µg/mL
- Anti-bacterial activity (MIC), strain MRSE 15-7 ([7]; clinical isolate MRSE 15-7): 0.5 µg/mL
- Anti-bacterial activity (MIC), strain MSSA 15-3 ([8]; clinical isolate MSSA 15-3): 0.5 µg/mL
- Anti-bacterial activity (MIC), strain MSSA 15-4 ([8]; clinical isolate MSSA 15-4): 0.5 µg/mL
- Anti-bacterial activity (MIC), strain MSSA 15-5 ([8]; clinical isolate MSSA 15-5): 0.5 µg/mL
- Anti-bacterial activity (MIC), strain MSSA 15-6 ([8]; clinical isolate MSSA 15-6): 0.5 µg/mL
- Anti-bacterial activity (MIC), strain MSSE 15-3 ([9]; clinical isolate MSSE 15-3): 0.5 µg/mL
- Anti-bacterial activity (MIC), strain MSSE 15-4 ([9]; clinical isolate MSSE 15-4): 0.5 µg/mL
- Anti-bacterial activity (MIC), strain MSSE 15-5 ([9]; clinical isolate MSSE 15-5): 0.25 µg/mL
- Anti-bacterial activity (MIC), strain MSSE 15-6 ([9]; clinical isolate MSSE 15-6): 0.25 µg/mL
- HCT116 inhibition rate/% [10]: 78%
- inhibition at 30 µM [11]: 30%
- Inhibition of proliferation, Liver cancer BEL-7402 [12]: 73%
- inhibition at 30 µM ([13]; Homo sapiens, MGC-803, 72 h): > 50%
- Inhibition of proliferation, Gastric cancer MGC-803 ([13]; 72 hours, 30 µM): 63%
